# Experiments:
# Assay type in all cases: cell-based, human
# mesenchymal cells = test: Hypoxy probe incorporation in ABME under normoxic conditions; settings: 200 μM Hypoxy probe, 48 hours; FIG. 11b
# Procedure: Mesenchymal cells were processed for ABME formation as per details given in Example 7(a) above using a biological modulator namely TGFbeta1 and were incubated with 200 μM Hypoxy probe (Chemicon, USA) for 48 hours. The cells were fixed and immuno-stained with an antibody specific for detection of the label (Chemicon).
# [1] = test system: mesenchymal cells (ABME) with MNC; test: quantitative hematopoietic colony formation assay for ABME (HCFA-ABME): MNC with hematomodulator-contacted mesenchymal cells
# Source text: As described above, the medium for blood cell formation employed may be IMDM with 20% serum and supplemented with interleukins such as IL-lbeta, IL-3, and IL-6, stem cell factor, lineage specific growth factors such as erythropoietin and GM-CSF, G-CSF; and methyl cellulose to the extent of 0.8%, the culture is maintained for 12-14 days under the culture conditions whereby blood cell colonies grow well or form colonies and clearly the growth is visible/distinguishable for further analysis and use. An assay designed in a similar manner to assess quantitative nature of ABME function is referred hereafter as ‘quantitative hematopoietic colony formation assay for ABME (HCFA-ABME)’.
# Several experiments were conducted to determine that mesenchymal cells exert direct influence on SPC cell-fate. In one set of experiments, mesenchymal cells were cultured separately and nearly 50,000 of them were exposed to a typical HCFA medium comprising 0.8% methyl cellulose in IMDM and 20-30% serum along with excess amounts of various purified and human specific cytokines and hematopoietic colony stimulating growth factors (from Stem cell Technologies, […], Canada). More specifically, the quantities of hematopoietic growth factors used routinely in HCFA were, 2 International Units per milliliter (2 I.U.ml^−1) of Erythropietin (EPO), 50 nanogram per milliliter (50 ng.ml^−1) of Stem Cell Factor (SCF) and 20 nanogram per milliliter (20 ng/ml^−1) each of Granulocyte-Macrophage-Colony Stimulating Factor (GM-CSF), Granulocyte-Colony Stimulating Factor (G-CSF), Interleukin-1 beta (IL-1β), Interleukin-3 (IL-3) and Interleukin-6 (IL-6) {all growth factors and cytokines are from Stem cell Technologies, Vancouver, Canada,}.
# In another set of experiments, 50,000 of the same mesenchymal cells were first mixed with nearly 100,000 MNC, held at 37° C. for at least 30 minutes and were processed for colony formation assays. In several experiments, a consistent improvement in the number and cellularity of the hematopoietic colonies was seen when both these two cell types were mixed compared to a reference where only the cells of MNC were used. The increase was ranging from 1.5 to 10-fold. Thus, the enhancement in colony formation obtained with the use of only mesenchymal cells was highly variable and unpredictable among samples. The fact that hematopoietic colonies formed in increased numbers and cellularity only when MNC and mesenchymal cells were processed together is evidence of a new environment created by the mesenchymal cells in which the SPC present in the MNC were more productive. This increase results in activation of the pre-existing but quiescent SPC, formation of new SPC due to self-renewal, and a combination of both factors.
# In order to create ABME, the mesenchymal cells were covered with the contacting medium comprising hematomodulators contained in IMDM with 20% human serum or fetal bovine serum for a desirable period (range 8-24 hours) and removed. The contacted cells were then washed 2 times using the contacting medium (IMDM +20% FCS) without hematomodulators and used as such or after harvesting the mesenchymal cells, which now represent the composition of in vitro ABME. Optionally, ABME cells can be configured on supports that will distribute them in two or more dimensions for better results. A requisite number of MNC/SPC and cells of the ABME are taken and kept together for a suitable duration (range 0.5 to 6 hours) after which they were processed for in vitro hematopoietic colony formation assays or hematopoiesis.
# Thus, the inventors undertook 4 sets of experiments: (a) wherein mononuclear cells were exposed to mesenchymal cells without any treatment; (b) wherein MNC were exposed to mesenchymal cells contacted with a biological agent [TGFβ1] […]
# HIF1α = HIF1α immunostaining of mesenchymal cells; settings: immunostaining vs control cells; FIG. 11a
# Source text: Mesenchymal cells were processed for ABME formation as per details given in experiment #1 above using a biological modulator namely TGFbeta1. The cells were fixed after the indicated time periods and immuno-stained with an antibody to HIF1α which is a specific transcription factor related to hypoxia.
# CD34+ cells [2] = test: adhesion of CD34+ cells to ABME on coverslips; settings: 10 ngml^-1, 18 hours; CD34+/MNC contact 1 hour; vs reference coverslip
# Procedure: Mesenchyme cells were grown on a sterile 1 cm×1 cm glass coverslip to near confluence and were covered with a treatment medium containing 10 ngml^−1 TGF-β1 and were incubated for 18 hours in a humidified sterile atmosphere and 5% CO2. The coverslips were then washed with PBS, and the ABME thus created were covered with a suspension of 2×10^6 MNC or 2×10^5 CD34^+ cells in 0.2 ml of IMDM with 20% serum. After 1 hour at 37° C., the coverslips were washed with PBS and the cells were fixed and stained with a CD34^+ specific antibody (clone HPCA1, Becton Dickinson, USA). The number of CD34^+ cells attached were counted and compared to the number of similar cells that were attached in a parallel reference experiment where TGF-β1 was not used. […] It may be seen from FIGS. 6(d-f) that there is an increased adhesion of CD34^+ cells to mesenchymal cells when mesenchymal cells are treated with TGF-β1.
# CD34+ cells [3] = test: self renewal: CD34+ cell number after 48 hours on ABME; Jagged1 expression
# Procedure: Mesenchyme cells were grown on a sterile 1 cm×1 cm glass coverslip to near confluence and were covered with a treatment medium containing 10 ngml^−1 TGF-β1 and were incubated for 18 hours in a humidified sterile atmosphere and 5% CO2. The coverslips were then washed with PBS, and the ABME thus created were covered with a suspension of 2×10^5 CD34^+ cells in 0.2 ml of IMDM with 20% serum. The cells were washed after one hour and the bound cells were covered with medium with 20% serum containing 0.8% methyl cellulose and growth factors. The change in CD34^+ cell number after 48 hours was monitored with a CD34^+ specific antibody (clone HPCA1, Becton Dickinson, USA).
substance,measurement,setting,value
HumanTransforming Growth Factor beta1 [TGFβ1],Hypoxy probe label incorporation,mesenchymal cells,high incorporation of the label
same,efficiency of ABME created,"[1]; 1-25 nano gram.ml^-1, mesenchymal cells contacted 8-24 hours",equally efficient ABME
same,"blood cell colonies formed (number, cellularity)","[1]; MNC exposed to mesenchymal cells contacted with the agent, compared with (A) untreated mesenchymal cells, FIG. 1",greater in number and of higher cellularity than (A)
same,"colony formation along lineages GEMM, BFU-E and GM","[1]; lineage specific colony formation assay, FIG. 3A, vs control without biological agent",uniformly stimulated
same,potency in creating ABME from mesenchymal cells,[1]; used separately,nearly equipotent
same,HIF1α expression,HIF1α,clear nuclear expression of HIF1α
same,number of CD34+ cells attached to ABME,CD34+ cells [2],significantly more number of CD34^+ cells attached
same,CD34+ cell proliferation,"CD34+ cells [3]; 10 ngml^-1, 18 hours, CD34+ number after 48 hours, vs no TGFβ1, FIG. 10b",supported more CD34^+ cell proliferation
same,Jagged1 amount in ABME,"CD34+ cells [3]; compared to mesenchyme cells, FIG. 10c","significantly more amounts of the promoter of self renewal, Jagged1"

# — patent US20080241870A1, “Composition For Creating an Artificial Bone Marrow Like Environment and Use Thereof” (NATIONAL CENTRE FOR CELL SCINECES, priority 2005, published 2008)
